Here are results for 8 compounds from patent US7767704B2, “Antiviral 4-aminocarbonylamino-substituted imidazole compounds” (AiCuris GmbH & Co. KG, priority 2004, dated 2010).

pEC50: −log10 of the molar value.

Data set [1] can be described thus: Cytostatic effect on NHDF cells in the anti-HCMV cytopathogenicity test. Particulars: NHDF cells (human prepuce fibroblasts), 6 days incubation, visual assessment, concentration at which no visible cytostatic effects are evident. The data set is classed as cell-based. On the procedure: (§1) Anti-HCMV (Anti-human Cytomegalovirus) Cytopathogenicity Tests
(§2) The test compounds are employed as 50 millimolar (mM) solutions in dimethyl sulphoxide (DMSO). Ganciclovir, foscarnet and cidofovir are used as reference compounds. After addition of in each case 2 μl of the 50, 5, 0.5 and 0.05 mM DMSO stock solutions to 98 μl portions of cell culture medium in row 2 A-H for duplicate determinations, 1:2 dilutions are carried out with 50 μl portions of medium up to row 11 of the 96-well plate. The wells in rows 1 and 12 each contain 50 μl of medium. 150 μl of a suspension of 1×10^4 cells (human prepuce fibroblasts [NHDF]) are pipetted into each of the wells (row 1=cell control) and, in rows 2-12, a mixture of HCMV-infected and uninfected NHDF cells (M.O.I.=0.001-0.002), i.e. 1-2 infected cells per 1000 uninfected cells. Row 12 (without substance) serves as virus control. The final test concentrations are 250-0.0005 μM. The plates are incubated at 37° C./5% CO2 for 6 days, i.e. until all the cells are infected in the virus controls (100% cytopathogenic effect [CPE]). The wells are then fixed and stained by adding a mixture of formalin and Giemsa's dye (30 minutes), washed with double-distilled water and dried in a drying oven at 50° C. The plates are then assessed visually using an overhead microscope (plaque multiplier from Technomara).
(§3) The following data can be acquired from the test plates: • CC50 (NHDF)=substance concentration in μM at which no visible cytostatic effects on the cells are evident by comparison with the untreated cell control; • EC50 (HCMV)=substance concentration in […] which inhibits the CPE (cytopathic effect) by 50% compared with the untreated virus control; • SI (selectivity index)=CC50 (NHDF)/EC50 (HCMV).

Another data set concerns HCMV. The data set can be described thus: Anti-HCMV (anti-human cytomegalovirus) cytopathogenicity test. The data set is classed as cell-based. The note with it: Human betaherpesvirus 5, 144 h; HCMV-infected NHDF cells, M.O.I. 0.001-0.002, 6 days; inhibition of CPE by 50% vs untreated virus control. On the procedure:
as §1, §2, §3
A general note: Cytopathic effects are the visible damage that an infection or toxin causes in cultured cells.

What is called CC50 is the concentration that lowers cell viability or growth by half. A low value points to harm at low concentration. One may read the pEC50 as −log10 of the EC50, conventionally taken in molar units. A lower pEC50 goes with a high EC50. `COc1ccc(C(C)NC(=O)c2nc(NC(=O)Nc3ccc(C)c(F)c3)cn2C)cn1` (stereo not shown) [Example 2, 4-({[(3-Fluoro-4-methylphenyl)amino]carbonyl}amino)-N-[1-(6-methoxypyridin-3-yl)ethyl]-1-methyl-1H-imidazole-2-carboxamide]: half-maximal cytotoxicity in data set [1] (CC50 at 6 days) was put at 94000 nM. Also, the pEC50 in the data set with HCMV was 9.30.

Turning to `Cc1cc(Cl)ccc1NC(=O)Nc1cn(CC2CC2)c(C(=O)NCCCN2CCOCC2)n1` [Example 3, 4-({[(4-Chloro-2-methylphenyl)amino]carbonyl}amino)-1-(cyclopropylmethyl)-N-(3-morpholin-4-ylpropyl)-1H-imidazole-2-carboxamide], the CC50 at 6 days in data set [1] turned out to be 25000 nM. In the data set with HCMV, this compound had a pEC50 of 8.52.

Consider `Cc1cc(Cl)ccc1NC(=O)Nc1cn(CC2CC2)c(C(=O)NCCCn2cccn2)n1` [Example 11], for which the cytotoxic concentration (CC50) at 6 days in data set [1] was found to be 25000 nM. The same compound gave a pEC50 with HCMV of 9.00.

`COCCOCCCNC(=O)c1nc(NC(=O)Nc2ccc(Cl)cc2C)cn1CC=C(C)C` [Example 25] registered a CC50 at 6 days in data set [1] of 6250 nM. This compound had a pEC50 in the data set with HCMV of 9.00.

`COc1ccc(CNC(=O)c2nc(NC(=O)Nc3ccc(OC(F)(F)F)cc3)cn2CC2CC2)cc1` [Example 32]: in data set [1], half-maximal cytotoxicity (CC50 at 6 days) was put at 3130 nM. The negative-log EC50 (pEC50) in the data set with HCMV is 9.00.

The compound `O=C(Nc1ccc(OC(F)(F)F)cc1)Nc1cn(Cc2ccc(C(F)(F)F)cc2)c(C(=O)NCCO)n1` [Example 124, N-(2-Hydroxyethyl)-4-[({[4-(trifluoromethoxy)phenyl]amino}carbonyl)amino]-1-[4-(trifluoromethyl)benzyl]-1H-imidazole-2-carboxamide] gave a CC50 at 6 days in data set [1] of 9400 nM. Also, in the data set on HCMV, the pEC50 is 8.85.

Regarding `O=C(Nc1ccc(OC(F)(F)F)cc1)Nc1cn(Cc2ccc(C(F)(F)F)cc2)c(C(=O)NCCOC(=O)CN2CCOCC2)n1` [Example 139], it took 4700 nM to reach half-maximal cytotoxicity in data set [1] (CC50 at 6 days). The negative logarithm of the EC50 (pEC50) with HCMV was 8.55.

In data set [1], `Cn1cc(NC(=O)Nc2ccc(OC(F)(F)F)cc2)nc1C(=O)NCCCC(F)(F)F` [Example 152, 1-Methyl-N-(4,4,4-trifluorobutyl)-4-[({[4-(trifluoromethoxy)phenyl]amino}carbonyl)amino]-1H-imidazole-2-carboxamide] registered a CC50 at 6 days of 31000 nM. Besides, the pEC50 in the data set on HCMV is 8.72.
